Values after ≈ are worked out from the molar mass of the structure shown. Like-named read-outs stand apart in the source and are kept apart here.
Experiments:
fungal (fACC2) = fungal (fACC2) (UniProt Q00955); conditions: read-out: fACC2 (in vitro ACC2 Inhibition Assay, IC50), ADP-Glo, 5 nM ACC2, 20 μM ATP, 20 μM acetyl-CoA
C. krusei = test: Antifungal Activity Assay (broth microtiter MIC), C. krusei; type: cell-based, Candida krusei; conditions: Pichia kudriavzevii, ATCC6258, 48 h, ATCC 6258, 3 replicates, MIC recorded at 48 h, read-out: MIC, C. krusei ATCC 6258
Procedure: (§1) Compounds of the present invention were evaluated in an Antifungal Activity Assay. An exemplary procedure for the assay, which measures the susceptibility of various Candida species to antifungal compounds, follows. Compounds to be tested (including fluconazole and amphotericin B) were dissolved in DMSO to obtain a solution having a concentration of 1 mg/mL. These stock solutions were sterile filtered using a 0.22 um nylon syringe filter, then diluted in sterile water to achieve a final concentration of 128 μg/mL.
(§2) All species were grown from frozen stock by directly plating on to freshly prepared Sabouraud Dextrose agar (BD, Difco) and incubated overnight in ambient air at 35° C. for 24 h. A direct suspension was prepared in RPMI 1640+MOPS (Lonza, Biowhittaker) by taking individual colonies from the overnight cultures using sterile swabs soaked in sterile saline. The concentration of the suspension was determined using pre-determined standard curves. These suspensions were then diluted down to 5×10^3 CFU/mL to achieve a final concentration of 2.5×10^3 CFU/mL once added to the microtiter plate as per CLSI guidelines (M27-A3, Vol. 28 No. 14).
(§3) Broth microtiter MIC challenge plates were prepared following CLSI guidelines (M27-A3, Vol. 28 No. 14). The original CLSI guidelines focused on reading Candida MICs after 48 h of incubation. As reading after only 24 h offers a clear advantage of patient care, QC limits are being established for all drugs at 24 h. That being said there are no known interpretive breakpoints for amphotericin B at 24 h and the current fluconazole interpretive breakpoints are based on a 48 h reading. The MICs for the test compounds were recorded at 48 h. All MIC determinations were achieved by visually comparing the growth found in the antibiotic challenged wells to that of the growth control.

human (hACC2) = human (hACC2) (Homo sapiens, UniProt O00763); test: In vitro ACC inhibition assay (ADP-Glo), hACC2; type: biochemical; conditions: 5 nM ACC2, 20 μM ATP, 20 μM acetyl-CoA
Procedure: The detailed procedure is as follows. […] 10 μL ADP glo reagent was added. […] 20 μL kinase detection reagent was added.

C. albicans = test: Antifungal Activity Assay (broth microtiter MIC), C. albicans; type: cell-based, Candida albicans; conditions: Candida albicans, ATCC90028, 48 h, ATCC 90028, 3 replicates, MIC recorded at 48 h, read-out: MIC, C. albicans ATCC 90028
Procedure: as §1, §2, §3

C. parapsilosis = test: Antifungal Activity Assay (broth microtiter MIC), C. parapsilosis; type: cell-based, Candida parapsilosis; conditions: Lodderomyces parapsilosis, ATCC22019, 48 h, ATCC 22019, 3 replicates, MIC recorded at 48 h, read-out: MIC, C. parapsilosis ATCC 22019
Procedure: as §1, §2, §3

fungal (fACC2), sequence (Q00955 whole entry): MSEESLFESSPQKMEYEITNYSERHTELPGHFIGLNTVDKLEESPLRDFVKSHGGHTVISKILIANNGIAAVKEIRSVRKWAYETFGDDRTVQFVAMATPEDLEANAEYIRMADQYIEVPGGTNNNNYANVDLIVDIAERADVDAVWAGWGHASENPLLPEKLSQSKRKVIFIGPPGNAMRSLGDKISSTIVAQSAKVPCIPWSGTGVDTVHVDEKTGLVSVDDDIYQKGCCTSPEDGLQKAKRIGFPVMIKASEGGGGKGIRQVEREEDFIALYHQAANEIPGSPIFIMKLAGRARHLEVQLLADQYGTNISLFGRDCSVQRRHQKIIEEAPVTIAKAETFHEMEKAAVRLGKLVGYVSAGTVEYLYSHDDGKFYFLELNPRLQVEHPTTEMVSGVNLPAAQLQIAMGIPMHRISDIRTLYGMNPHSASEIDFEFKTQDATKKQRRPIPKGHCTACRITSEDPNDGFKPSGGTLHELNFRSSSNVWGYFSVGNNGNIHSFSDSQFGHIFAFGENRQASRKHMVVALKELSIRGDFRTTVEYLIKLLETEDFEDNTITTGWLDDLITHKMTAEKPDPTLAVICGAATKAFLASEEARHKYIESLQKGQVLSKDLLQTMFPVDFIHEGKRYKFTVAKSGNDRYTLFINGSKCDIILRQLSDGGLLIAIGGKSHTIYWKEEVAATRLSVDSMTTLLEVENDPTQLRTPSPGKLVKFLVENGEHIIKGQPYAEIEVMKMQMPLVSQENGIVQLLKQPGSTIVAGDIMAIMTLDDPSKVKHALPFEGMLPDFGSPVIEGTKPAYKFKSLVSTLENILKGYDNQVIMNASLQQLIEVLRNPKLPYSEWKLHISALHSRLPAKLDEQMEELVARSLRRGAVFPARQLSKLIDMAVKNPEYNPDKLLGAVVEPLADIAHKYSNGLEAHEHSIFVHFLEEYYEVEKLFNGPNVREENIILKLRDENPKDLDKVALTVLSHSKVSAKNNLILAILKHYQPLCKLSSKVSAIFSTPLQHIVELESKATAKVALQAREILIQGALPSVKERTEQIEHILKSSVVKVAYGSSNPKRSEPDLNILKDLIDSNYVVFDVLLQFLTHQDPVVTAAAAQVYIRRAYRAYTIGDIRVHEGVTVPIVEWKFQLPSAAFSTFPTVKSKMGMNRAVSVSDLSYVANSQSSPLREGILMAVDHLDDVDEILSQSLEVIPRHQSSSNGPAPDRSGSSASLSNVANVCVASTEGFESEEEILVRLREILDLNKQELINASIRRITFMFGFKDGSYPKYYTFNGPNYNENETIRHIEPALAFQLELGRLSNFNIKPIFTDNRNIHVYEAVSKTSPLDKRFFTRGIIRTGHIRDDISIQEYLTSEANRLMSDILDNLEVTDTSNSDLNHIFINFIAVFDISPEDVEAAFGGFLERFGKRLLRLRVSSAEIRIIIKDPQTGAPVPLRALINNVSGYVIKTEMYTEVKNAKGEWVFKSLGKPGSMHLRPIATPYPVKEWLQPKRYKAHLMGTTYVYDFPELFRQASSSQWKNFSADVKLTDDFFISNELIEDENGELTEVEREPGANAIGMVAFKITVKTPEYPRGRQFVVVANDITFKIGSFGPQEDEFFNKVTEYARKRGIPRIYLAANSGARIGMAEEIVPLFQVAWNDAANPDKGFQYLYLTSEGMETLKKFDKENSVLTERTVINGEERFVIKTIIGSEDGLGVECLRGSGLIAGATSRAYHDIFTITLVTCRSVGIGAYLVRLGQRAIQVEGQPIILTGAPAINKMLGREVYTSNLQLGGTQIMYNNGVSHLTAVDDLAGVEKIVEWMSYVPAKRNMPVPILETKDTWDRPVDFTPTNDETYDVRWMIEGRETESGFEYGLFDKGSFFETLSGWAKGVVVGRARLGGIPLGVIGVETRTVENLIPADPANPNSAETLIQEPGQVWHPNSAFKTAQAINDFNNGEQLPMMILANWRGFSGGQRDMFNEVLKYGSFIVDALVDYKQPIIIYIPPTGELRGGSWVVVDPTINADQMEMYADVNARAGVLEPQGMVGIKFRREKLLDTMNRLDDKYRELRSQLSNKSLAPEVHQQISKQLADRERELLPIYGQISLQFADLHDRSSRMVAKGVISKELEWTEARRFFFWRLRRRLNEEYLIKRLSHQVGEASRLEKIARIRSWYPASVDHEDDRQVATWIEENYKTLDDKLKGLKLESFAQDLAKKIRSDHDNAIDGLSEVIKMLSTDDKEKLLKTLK
human (hACC2), sequence (O00763 whole entry): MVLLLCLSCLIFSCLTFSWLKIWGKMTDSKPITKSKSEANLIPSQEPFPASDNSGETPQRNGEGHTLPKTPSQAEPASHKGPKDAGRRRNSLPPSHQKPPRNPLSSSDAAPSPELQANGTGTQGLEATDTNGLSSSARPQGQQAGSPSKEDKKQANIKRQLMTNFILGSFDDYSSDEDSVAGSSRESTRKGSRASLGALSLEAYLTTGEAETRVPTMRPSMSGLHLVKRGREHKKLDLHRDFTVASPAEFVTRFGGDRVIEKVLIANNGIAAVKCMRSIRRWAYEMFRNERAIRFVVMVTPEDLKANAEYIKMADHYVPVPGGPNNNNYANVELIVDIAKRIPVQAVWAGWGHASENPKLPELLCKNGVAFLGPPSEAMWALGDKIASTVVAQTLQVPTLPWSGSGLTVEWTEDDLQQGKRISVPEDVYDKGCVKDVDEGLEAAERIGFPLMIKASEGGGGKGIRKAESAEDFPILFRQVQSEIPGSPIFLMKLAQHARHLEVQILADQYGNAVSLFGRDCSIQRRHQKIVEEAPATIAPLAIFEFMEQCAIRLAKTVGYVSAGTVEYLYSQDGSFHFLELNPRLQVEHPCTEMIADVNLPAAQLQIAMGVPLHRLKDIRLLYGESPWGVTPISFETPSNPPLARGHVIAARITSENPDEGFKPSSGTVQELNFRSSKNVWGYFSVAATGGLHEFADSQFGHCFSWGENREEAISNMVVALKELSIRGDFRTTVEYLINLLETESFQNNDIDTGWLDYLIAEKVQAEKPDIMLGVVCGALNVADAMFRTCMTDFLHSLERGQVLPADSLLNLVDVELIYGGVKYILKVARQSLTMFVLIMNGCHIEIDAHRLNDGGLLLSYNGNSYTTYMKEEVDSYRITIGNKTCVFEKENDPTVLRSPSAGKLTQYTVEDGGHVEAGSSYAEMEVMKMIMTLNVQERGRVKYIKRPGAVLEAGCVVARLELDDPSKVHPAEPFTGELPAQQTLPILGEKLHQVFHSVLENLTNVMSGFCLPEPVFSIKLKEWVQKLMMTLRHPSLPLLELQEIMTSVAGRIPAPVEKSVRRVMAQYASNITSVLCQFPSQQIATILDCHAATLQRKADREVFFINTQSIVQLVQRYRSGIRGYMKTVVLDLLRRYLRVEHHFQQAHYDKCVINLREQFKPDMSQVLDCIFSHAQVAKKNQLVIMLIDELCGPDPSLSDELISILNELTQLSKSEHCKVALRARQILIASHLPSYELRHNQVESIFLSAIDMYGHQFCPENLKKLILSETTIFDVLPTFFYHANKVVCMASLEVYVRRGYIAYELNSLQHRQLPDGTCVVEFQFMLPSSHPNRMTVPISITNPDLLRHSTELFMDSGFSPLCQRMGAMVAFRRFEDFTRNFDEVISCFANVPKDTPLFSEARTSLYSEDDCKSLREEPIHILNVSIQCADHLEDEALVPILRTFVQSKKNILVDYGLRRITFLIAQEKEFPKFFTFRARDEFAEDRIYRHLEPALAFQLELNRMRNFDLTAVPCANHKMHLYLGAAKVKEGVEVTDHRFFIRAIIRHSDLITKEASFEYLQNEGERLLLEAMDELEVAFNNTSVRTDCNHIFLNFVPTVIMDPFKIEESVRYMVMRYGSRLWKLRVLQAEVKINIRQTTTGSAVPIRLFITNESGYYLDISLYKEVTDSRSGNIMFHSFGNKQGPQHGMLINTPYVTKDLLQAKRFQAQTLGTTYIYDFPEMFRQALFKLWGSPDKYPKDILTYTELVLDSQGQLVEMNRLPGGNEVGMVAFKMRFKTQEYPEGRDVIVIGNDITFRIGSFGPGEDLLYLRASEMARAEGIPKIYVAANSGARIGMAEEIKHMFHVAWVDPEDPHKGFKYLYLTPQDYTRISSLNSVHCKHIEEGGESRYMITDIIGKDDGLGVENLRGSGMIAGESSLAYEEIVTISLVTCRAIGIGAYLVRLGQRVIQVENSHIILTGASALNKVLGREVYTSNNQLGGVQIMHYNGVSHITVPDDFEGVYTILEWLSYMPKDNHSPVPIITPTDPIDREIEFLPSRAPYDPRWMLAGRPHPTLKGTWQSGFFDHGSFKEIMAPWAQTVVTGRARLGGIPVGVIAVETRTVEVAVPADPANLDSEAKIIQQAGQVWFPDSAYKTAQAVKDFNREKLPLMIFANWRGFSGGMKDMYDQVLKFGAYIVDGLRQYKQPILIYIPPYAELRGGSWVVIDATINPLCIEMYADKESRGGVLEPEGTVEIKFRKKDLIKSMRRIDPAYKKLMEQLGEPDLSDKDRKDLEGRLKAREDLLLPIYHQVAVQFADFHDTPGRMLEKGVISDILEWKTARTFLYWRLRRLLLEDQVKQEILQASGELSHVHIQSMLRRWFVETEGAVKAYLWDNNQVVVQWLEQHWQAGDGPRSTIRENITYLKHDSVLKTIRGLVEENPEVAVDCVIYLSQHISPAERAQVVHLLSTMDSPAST

Structure (SMILES)	IC50 (fungal (fACC2); Table 2a)	IC50 (fungal (fACC2); Table 2b, additional results)	MIC (C. krusei; Table 3a)	MIC (C. krusei; Table 3b (additional results))	IC50 (human (hACC2); Table 2a)	IC50 (human (hACC2); Table 2b, additional results)	MIC (C. albicans; Table 3a)	MIC (C. albicans; Table 3b (additional results))	MIC (C. parapsilosis; Table 3a)	MIC (C. parapsilosis; Table 3b (additional results))
COc1ccc(F)cc1[C@H](Cn1c(=O)n(C(C)(C)C(=O)N2CC=CC2)c(=O)c2c(C)c(-n3nccn3)sc21)OCC(C)O (stereo partly shown) [Compound I-121]	1 to 5 nM	1 to 5 nM	0.25 to 1 µg/mL (≈ 0.408 to 1.63 µM)	> 4.01 µg/mL	1 to 5 nM	1 to 5 nM	1.1 to 2 µg/mL (≈ 1.8 to 3.26 µM)	1.01 to 2 µg/mL (≈ 1.65 to 3.26 µM)	1.1 to 2 µg/mL (≈ 1.8 to 3.26 µM)	2.01 to 4 µg/mL (≈ 3.28 to 6.53 µM)
COCCOc1ccc(F)cc1[C@H](Cn1c(=O)n(C(C)(C)C(=O)NC(C)C)c(=O)c2c(C)c(-n3nccn3)sc21)OCCOC [Compound I-122]	1 to 5 nM	1 to 5 nM	0.25 to 1 µg/mL (≈ 0.387 to 1.55 µM)	1.01 to 2 µg/mL (≈ 1.56 to 3.09 µM)	10 to 40 nM	10 to 40 nM	2.1 to 4 µg/mL (≈ 3.25 to 6.18 µM)	2.01 to 4 µg/mL (≈ 3.11 to 6.18 µM)	1.1 to 2 µg/mL (≈ 1.7 to 3.09 µM)	1.01 to 2 µg/mL (≈ 1.56 to 3.09 µM)
COc1ccc(F)cc1[C@H](Cn1c(=O)n(C(C)(C)C(N)=O)c(=O)c2c(C)c(-n3nccn3)sc21)OCCC(=O)C(F)(F)F [Compound I-123]	1 to 5 nM	1 to 5 nM	1.1 to 2 µg/mL (≈ 1.76 to 3.19 µM)	> 4.01 µg/mL	10 to 40 nM	10 to 40 nM	2.1 to 4 µg/mL (≈ 3.35 to 6.38 µM)	> 4.01 µg/mL	2.1 to 4 µg/mL (≈ 3.35 to 6.38 µM)	> 4.01 µg/mL
CCc1ccc(F)cc1[C@H](Cn1c(=O)n(C(C)(C)C(=O)O)c(=O)c2c(C)c(-n3nccn3)sc21)OCCO [Compound I-125]	1 to 5 nM	0.3 to 1 nM	2.1 to 4 µg/mL (≈ 3.85 to 7.33 µM)	> 4.01 µg/mL	1 to 5 nM	1 to 5 nM	2.1 to 4 µg/mL (≈ 3.85 to 7.33 µM)	> 4.01 µg/mL	2.1 to 4 µg/mL (≈ 3.85 to 7.33 µM)	> 4.01 µg/mL
COCCO[C@@H](Cn1c(=O)n(C(C)(C)C(=O)OC(C)C)c(=O)c2c(C)c(-n3nccn3)sc21)c1cc(F)ccc1OC [Compound I-127]	1 to 5 nM	1 to 5 nM	0.25 to 1 µg/mL (≈ 0.414 to 1.66 µM)	2.01 to 4 µg/mL (≈ 3.33 to 6.63 µM)	10 to 40 nM	10 to 40 nM	1.1 to 2 µg/mL (≈ 1.82 to 3.31 µM)	2.01 to 4 µg/mL (≈ 3.33 to 6.63 µM)	1.1 to 2 µg/mL (≈ 1.82 to 3.31 µM)	> 4.01 µg/mL
COCCO[C@@H](Cn1c(=O)n(C(C)(C)C(=O)OC2CCC2)c(=O)c2c(C)c(-n3nccn3)sc21)c1cc(F)ccc1OC [Compound I-128]	1 to 5 nM	1 to 5 nM	1.1 to 2 µg/mL (≈ 1.79 to 3.25 µM)	2.01 to 4 µg/mL (≈ 3.26 to 6.5 µM)	10 to 40 nM	10 to 40 nM	2.1 to 4 µg/mL (≈ 3.41 to 6.5 µM)	> 4.01 µg/mL	2.1 to 4 µg/mL (≈ 3.41 to 6.5 µM)	2.01 to 4 µg/mL (≈ 3.26 to 6.5 µM)
COc1ccc(F)cc1[C@H](Cn1c(=O)n(C(C)(C)C(=O)OC(C)C)c(=O)c2c(C)c(-n3nccn3)sc21)OCCO [Compound I-129]	1 to 5 nM	1 to 5 nM	0.25 to 1 µg/mL (≈ 0.424 to 1.7 µM)	0.25 to 1 µg/mL (≈ 0.424 to 1.7 µM)	1 to 5 nM	1 to 5 nM	1.1 to 2 µg/mL (≈ 1.87 to 3.39 µM)	1.01 to 2 µg/mL (≈ 1.71 to 3.39 µM)	0.25 to 1 µg/mL (≈ 0.424 to 1.7 µM)	> 4.01 µg/mL
COCCCO[C@@H](Cn1c(=O)n(C(C)C(=O)NC(C)C)c(=O)c2c(C)c(-n3nccn3)sc21)c1cc(F)ccc1OC (stereo partly shown) [Compound I-130]	0.4 to 1 nM	0.3 to 1 nM	2.1 to 4 µg/mL (≈ 3.48 to 6.64 µM)	1.01 to 2 µg/mL (≈ 1.68 to 3.32 µM)	10 to 40 nM	10 to 40 nM	1.1 to 2 µg/mL (≈ 1.83 to 3.32 µM)	2.01 to 4 µg/mL (≈ 3.34 to 6.64 µM)	1.1 to 2 µg/mL (≈ 1.83 to 3.32 µM)	1.01 to 2 µg/mL (≈ 1.68 to 3.32 µM)
COc1ccc(F)cc1[C@H](Cn1c(=O)n(C(C)C(=O)NC(C)C)c(=O)c2c(C)c(-n3nccn3)sc21)OCCO (stereo partly shown) [Compound I-131]	0.4 to 1 nM	0.3 to 1 nM	0.25 to 1 µg/mL (≈ 0.435 to 1.74 µM)	1.01 to 2 µg/mL (≈ 1.76 to 3.48 µM)	5 to 10 nM	5 to 10 nM	1.1 to 2 µg/mL (≈ 1.91 to 3.48 µM)	2.01 to 4 µg/mL (≈ 3.5 to 6.96 µM)	1.1 to 2 µg/mL (≈ 1.91 to 3.48 µM)	1.01 to 2 µg/mL (≈ 1.76 to 3.48 µM)
COCCO[C@@H](Cn1c(=O)n(C(C)(C)C(=O)NC(C)C)c(=O)c2c(C)c(-n3nccn3)sc21)c1ccccc1OC [Compound I-133]	1 to 5 nM	1 to 5 nM	1.1 to 2 µg/mL (≈ 1.88 to 3.42 µM)	0.25 to 1 µg/mL (≈ 0.428 to 1.71 µM)	5 to 10 nM	5 to 10 nM	1.1 to 2 µg/mL (≈ 1.88 to 3.42 µM)	1.01 to 2 µg/mL (≈ 1.73 to 3.42 µM)	2.1 to 4 µg/mL (≈ 3.59 to 6.84 µM)	0.25 to 1 µg/mL (≈ 0.428 to 1.71 µM)

— US10800791B2, “Triazole ACC inhibitors and uses thereof” (Gilead Apollo, LLC, priority 2015, dated 2020)
